What was measured:
[1] = Solubility of MPS in DMSO as time passes after manufacture; assay type: physicochemical
Protocol: No matter what kind of foregoing method, the product must be dissolved in organic solvent within 30 minutes. The solubility of MPS in aqueous phase or organic phase solvents will decrease as time passes.

[2] = Tests of preserving method: MPS dissolution and self-assembly of gold nanoparticles on MPS-modified glass substrate; assay type: physicochemical
Protocol: Performing the tests of three preserving methods that preserve MPS under atmospheric condition, under nitrogen and in organic solvent.
Most silane molecules in general are placed in a brown bottle and stored at 4° C. To investigate the preservation conditions for MPS, the efficiency of the self-assembly reaction of gold nanoparticles on the MPS-modified substrate is used as an indirect indicator. There are two advantages by this approach. First, gold nanoparticles have a characteristic surface plasmon resonance band which can be easily observed in a visible light spectrum and its absorbance is related to the surface coverage of the nanoparticles modified on the surface of the substrate. Second, the peak width of the surface plasmon resonance band is related to the uniformity of the gold nanoparticles distributed on the surface of the substrate. In the present study, gold nanoparticles with 13 nm in diameter are chosen, and the characteristic absorption peak is about 530 nm. After synthesis, purified and dried MPS are separately stored under atmospheric condition at 4° C. and in a brown bottle at room temperature under nitrogen.
If the purified MPS is dissolved in organic solvent and then preserved under atmospheric condition and room temperature without avoiding light, the activity of the sample can be preserved for at least 1 year and 6 months (ex. 1 year and 7 months) (referring to FIG. 3(a)).
The activity of the sample is tested with the self-assembly reaction of gold nanoparticles on the surface of the substrate treated by the sample and then observed by visible light spectroscopy and scanning electron microscopy. The results are shown in FIG. 4(a) and FIG. 4(b) wherein, all experiments are performed by immersing the substrate in a methanol solution of MPS and then modifying gold nanoparticles on the treated substrate for 30 minutes.

## SCCC[Si]12OCCN(CCO1)CCO2 [MPS, (3-mercaptopropyl)silatrane]
[1]; after 1 week
  solubility of MPS in dimethyl sulfoxide (DMSO): about 40%
[1]; after 30 minutes
  solubility of MPS in dimethyl sulfoxide (DMSO): about 99%
[1]; after 1 day
  solubility of MPS in dimethyl sulfoxide (DMSO): about 90%
[2]; purified and dried MPS in brown bottle at room temperature under nitrogen, after 5 weeks
  dissolution of preserved sample: cannot be dissolved
[2]; purified and dried MPS under atmospheric condition at 4° C., after 3 weeks
  dissolution of preserved sample: cannot be dissolved in any solvent
[2]; traditional nitrogen preservation method under dark condition
  time for which MPS can be preserved: about two
